Assay results: ChEMBL document CHEMBL4610025, “Discovery of a follistatin-derived myostatin inhibitory peptide” (Bioorg Med Chem Lett, 2020)
Calls of active or inactive are those of the source. No cut-off for these calls is given here. Residues, ends and D or L forms follow the SMILES beside them.

Each compound was assayed against Growth/differentiation factor 8 (Homo sapiens) (UniProt O14793) (assay: Inhibition of myostatin (unknown origin) expressed in HEK293 cells at 10 uM incubated for 4 hrs by dual luciferase reporter gene assay).
Type: cell-based

Growth/differentiation factor 8 (Homo sapiens), sequence (O14793 267-375 limits assumed): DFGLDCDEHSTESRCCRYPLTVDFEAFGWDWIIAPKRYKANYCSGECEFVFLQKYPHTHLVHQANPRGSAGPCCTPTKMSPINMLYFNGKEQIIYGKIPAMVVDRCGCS

Compound	inhibition
CC[C@H](C)[C@H](NC(=O)[C@H](CCSC)NC(=O)[C@H](Cc1c[nH]c2ccccc12)NC(=O)[C@H](CCCCN)NC(=O)[C@H](C)NC(=O)[C@H](CC(C)C)NC(=O)[C@@H](NC(=O)[C@H](CC(N)=O)NC(=O)[C@H](CC(=O)O)NC(=O)[C@H](CC(N)=O)NC(=O)[C@@H](N)C(C)C)[C@@H](C)O)C(=O)N[C@@H](Cc1ccccc1)C(=O)N[C@@H](CC(N)=O)C(=O)NCC(N)=O (H-VNDNTLAKWMIFNG-NH2)	inactive
CC[C@H](C)[C@H](NC(=O)[C@H](CCSC)NC(=O)[C@H](Cc1c[nH]c2ccccc12)NC(=O)[C@H](CCCCN)NC(=O)[C@H](Cc1ccccc1)NC(=O)[C@H](CC(C)C)NC(=O)[C@@H](NC(=O)[C@H](CC(N)=O)NC(=O)[C@H](CC(=O)O)NC(=O)[C@@H](N)CC(N)=O)[C@@H](C)O)C(=O)N[C@@H](Cc1ccccc1)C(=O)N[C@@H](CC(N)=O)C(N)=O (H-NDNTLFKWMIFN-NH2)	Active
CC[C@H](C)[C@H](NC(=O)[C@H](CCSC)NC(=O)[C@H](Cc1c[nH]c2ccccc12)NC(=O)[C@H](C)NC(=O)[C@H](Cc1ccccc1)NC(=O)[C@H](CC(C)C)NC(=O)[C@@H](NC(=O)[C@H](CC(N)=O)NC(=O)[C@H](CC(=O)O)NC(=O)[C@H](CC(N)=O)NC(=O)[C@@H](N)C(C)C)[C@@H](C)O)C(=O)N[C@@H](Cc1ccccc1)C(=O)N[C@@H](CC(N)=O)C(=O)NCC(N)=O (H-VNDNTLFAWMIFNG-NH2)	inactive
CC[C@H](C)[C@H](NC(=O)[C@H](CCSC)NC(=O)[C@H](C)NC(=O)[C@H](CCCCN)NC(=O)[C@H](Cc1ccccc1)NC(=O)[C@H](CC(C)C)NC(=O)[C@@H](NC(=O)[C@H](CC(N)=O)NC(=O)[C@H](CC(=O)O)NC(=O)[C@H](CC(N)=O)NC(=O)[C@@H](N)C(C)C)[C@@H](C)O)C(=O)N[C@@H](Cc1ccccc1)C(=O)N[C@@H](CC(N)=O)C(=O)NCC(N)=O (H-VNDNTLFKAMIFNG-NH2)	inactive
CC[C@H](C)[C@H](NC(=O)[C@H](CCSC)NC(=O)[C@H](Cc1c[nH]c2ccccc12)NC(=O)[C@H](CCCCN)NC(=O)[C@H](Cc1ccccc1)NC(=O)[C@H](CC(C)C)NC(=O)[C@@H](NC(=O)[C@H](CC(N)=O)NC(=O)[C@H](CC(=O)O)NC(=O)[C@H](CC(N)=O)NC(=O)[C@@H](N)C(C)C)[C@@H](C)O)C(=O)N[C@@H](Cc1ccccc1)C(=O)N[C@@H](C)C(=O)NCC(N)=O (H-VNDNTLFKWMIFAG-NH2)	inactive
CC[C@H](C)[C@H](NC(=O)[C@H](CCSC)NC(=O)[C@H](Cc1c[nH]c2ccccc12)NC(=O)[C@H](CCCCN)NC(=O)[C@H](Cc1ccccc1)NC(=O)[C@H](CC(C)C)NC(=O)[C@@H](NC(=O)[C@H](CC(N)=O)NC(=O)[C@H](CC(=O)O)NC(=O)[C@H](C)NC(=O)[C@@H](N)C(C)C)[C@@H](C)O)C(=O)N[C@@H](Cc1ccccc1)C(=O)N[C@@H](CC(N)=O)C(=O)NCC(N)=O (H-VADNTLFKWMIFNG-NH2)	inactive
CC[C@H](C)[C@H](NC(=O)[C@H](CCSC)NC(=O)[C@H](Cc1c[nH]c2ccccc12)NC(=O)[C@H](CCCCN)NC(=O)[C@H](Cc1ccccc1)NC(=O)[C@H](CC(C)C)NC(=O)[C@@H](NC(=O)[C@H](CC(N)=O)NC(=O)[C@H](CC(=O)O)NC(=O)[C@H](CC(N)=O)NC(=O)[C@@H](N)C(C)C)[C@@H](C)O)C(=O)N[C@@H](C)C(=O)N[C@@H](CC(N)=O)C(=O)NCC(N)=O (H-VNDNTLFKWMIANG-NH2)	inactive
CC[C@H](C)[C@H](NC(=O)[C@H](CCSC)NC(=O)[C@H](Cc1c[nH]c2ccccc12)NC(=O)[C@H](CCCCN)NC(=O)[C@H](Cc1ccccc1)NC(=O)[C@H](CC(C)C)NC(=O)[C@@H](NC(=O)[C@H](CC(N)=O)NC(=O)[C@H](C)NC(=O)[C@H](CC(N)=O)NC(=O)[C@@H](N)C(C)C)[C@@H](C)O)C(=O)N[C@@H](Cc1ccccc1)C(=O)N[C@@H](CC(N)=O)C(=O)NCC(N)=O (H-VNANTLFKWMIFNG-NH2)	Active

Other lines, results leading:

inhibition	Compound
inactive	CC[C@H](C)[C@H](NC(=O)[C@H](CCSC)NC(=O)[C@H](Cc1c[nH]c2ccccc12)NC(=O)[C@H](CCCCN)NC(=O)[C@H](Cc1ccccc1)NC(=O)[C@H](CC(C)C)NC(=O)[C@@H](NC(=O)[C@H](CC(N)=O)NC(=O)[C@H](CC(=O)O)NC(=O)[C@H](CC(N)=O)NC(=O)[C@@H](NC(=O)[C@H](CC(=O)O)NC(=O)[C@H](CCC(=O)O)NC(=O)[C@H](CCC(=O)O)NC(=O)[C@@H](NC(=O)[C@@H](N)Cc1c[nH]c2ccccc12)[C@@H](C)O)C(C)C)[C@@H](C)O)C(=O)N[C@@H](Cc1ccccc1)C(=O)N[C@@H](CC(N)=O)C(=O)NCC(N)=O (H-WTEEDVNDNTLFKWMIFNG-NH2)
inactive	CC[C@H](C)[C@H](NC(=O)[C@H](CCSC)NC(=O)[C@H](Cc1c[nH]c2ccccc12)NC(=O)[C@H](CCCCN)NC(=O)[C@H](Cc1ccccc1)NC(=O)[C@H](CC(C)C)NC(=O)[C@@H](NC(=O)[C@H](CC(N)=O)NC(=O)[C@H](CC(=O)O)NC(=O)[C@H](CC(N)=O)NC(=O)[C@@H](NC(=O)[C@H](CC(=O)O)NC(=O)[C@H](CCC(=O)O)NC(=O)[C@@H](N)CCC(=O)O)C(C)C)[C@@H](C)O)C(=O)N[C@@H](Cc1ccccc1)C(=O)N[C@@H](CC(N)=O)C(=O)NCC(N)=O (H-EEDVNDNTLFKWMIFNG-NH2)
inactive	CC[C@H](C)[C@H](NC(=O)[C@H](CCSC)NC(=O)[C@H](Cc1c[nH]c2ccccc12)NC(=O)[C@H](CCCCN)NC(=O)[C@H](Cc1ccccc1)NC(=O)[C@H](CC(C)C)NC(=O)[C@@H](NC(=O)[C@H](CC(N)=O)NC(=O)[C@H](CC(=O)O)NC(=O)[C@H](CC(N)=O)NC(=O)[C@H](C)N)[C@@H](C)O)C(=O)N[C@@H](Cc1ccccc1)C(=O)N[C@@H](CC(N)=O)C(=O)NCC(N)=O (H-ANDNTLFKWMIFNG-NH2)
inactive	CC[C@H](C)[C@H](NC(=O)[C@H](CCSC)NC(=O)[C@H](Cc1c[nH]c2ccccc12)NC(=O)[C@H](CCCCN)NC(=O)[C@H](Cc1ccccc1)NC(=O)[C@H](CC(C)C)NC(=O)[C@@H](NC(=O)[C@H](CC(N)=O)NC(=O)[C@H](CC(=O)O)NC(=O)[C@@H](N)CC(N)=O)[C@@H](C)O)C(=O)N[C@@H](Cc1ccccc1)C(=O)N[C@@H](CC(N)=O)C(=O)NCC(N)=O (H-NDNTLFKWMIFNG-NH2)
Active	CC[C@H](C)[C@H](NC(=O)[C@H](CCSC)NC(=O)[C@H](Cc1c[nH]c2ccccc12)NC(=O)[C@H](CCCCN)NC(=O)[C@H](Cc1ccccc1)NC(=O)[C@H](CC(C)C)NC(=O)[C@@H](NC(=O)[C@H](CC(N)=O)NC(=O)[C@H](CC(=O)O)NC(=O)[C@H](CC(N)=O)NC(=O)[C@@H](N)C(C)C)[C@@H](C)O)C(=O)N[C@@H](Cc1ccccc1)C(=O)N[C@@H](CC(N)=O)C(=O)N[C@@H](C)C(N)=O (H-VNDNTLFKWMIFNA-NH2)
inactive	CC[C@H](C)[C@H](NC(=O)[C@H](CCSC)NC(=O)[C@H](Cc1c[nH]c2ccccc12)NC(=O)[C@H](CCCCN)NC(=O)[C@H](Cc1ccccc1)NC(=O)[C@H](C)NC(=O)[C@@H](NC(=O)[C@H](CC(N)=O)NC(=O)[C@H](CC(=O)O)NC(=O)[C@H](CC(N)=O)NC(=O)[C@@H](N)C(C)C)[C@@H](C)O)C(=O)N[C@@H](Cc1ccccc1)C(=O)N[C@@H](CC(N)=O)C(=O)NCC(N)=O (H-VNDNTAFKWMIFNG-NH2)
inactive	CSCC[C@H](NC(=O)[C@H](Cc1c[nH]c2ccccc12)NC(=O)[C@H](CCCCN)NC(=O)[C@H](Cc1ccccc1)NC(=O)[C@H](CC(C)C)NC(=O)[C@@H](NC(=O)[C@H](CC(N)=O)NC(=O)[C@H](CC(=O)O)NC(=O)[C@H](CC(N)=O)NC(=O)[C@@H](N)C(C)C)[C@@H](C)O)C(=O)N[C@@H](C)C(=O)N[C@@H](Cc1ccccc1)C(=O)N[C@@H](CC(N)=O)C(=O)NCC(N)=O (H-VNDNTLFKWMAFNG-NH2)
inactive	CC[C@H](C)[C@H](NC(=O)[C@H](CCSC)NC(=O)[C@H](Cc1c[nH]c2ccccc12)NC(=O)[C@H](CCCCN)NC(=O)[C@H](Cc1ccccc1)NC(=O)[C@H](CC(C)C)NC(=O)[C@H](C)NC(=O)[C@H](CC(N)=O)NC(=O)[C@H](CC(=O)O)NC(=O)[C@H](CC(N)=O)NC(=O)[C@@H](N)C(C)C)C(=O)N[C@@H](Cc1ccccc1)C(=O)N[C@@H](CC(N)=O)C(=O)NCC(N)=O (H-VNDNALFKWMIFNG-NH2)
inactive	CC[C@H](C)[C@H](NC(=O)[C@H](CCSC)NC(=O)[C@H](Cc1c[nH]c2ccccc12)NC(=O)[C@H](CCCCN)NC(=O)[C@H](Cc1ccccc1)NC(=O)[C@H](CC(C)C)NC(=O)[C@@H](NC(=O)[C@H](CC(N)=O)NC(=O)[C@H](CC(=O)O)NC(=O)[C@H](CC(N)=O)NC(=O)[C@@H](N)C(C)C)[C@@H](C)O)C(=O)N[C@@H](Cc1ccccc1)C(=O)N[C@@H](CC(N)=O)C(N)=O (H-VNDNTLFKWMIFN-NH2)
inactive	CC[C@H](C)[C@H](NC(=O)[C@H](C)NC(=O)[C@H](Cc1c[nH]c2ccccc12)NC(=O)[C@H](CCCCN)NC(=O)[C@H](Cc1ccccc1)NC(=O)[C@H](CC(C)C)NC(=O)[C@@H](NC(=O)[C@H](CC(N)=O)NC(=O)[C@H](CC(=O)O)NC(=O)[C@H](CC(N)=O)NC(=O)[C@@H](N)C(C)C)[C@@H](C)O)C(=O)N[C@@H](Cc1ccccc1)C(=O)N[C@@H](CC(N)=O)C(=O)NCC(N)=O (H-VNDNTLFKWAIFNG-NH2)
Active	CC[C@H](C)[C@H](NC(=O)[C@H](CCSC)NC(=O)[C@H](Cc1c[nH]c2ccccc12)NC(=O)[C@H](CCCCN)NC(=O)[C@H](Cc1ccccc1)NC(=O)[C@H](CC(C)C)NC(=O)[C@@H](NC(=O)[C@H](C)NC(=O)[C@H](CC(=O)O)NC(=O)[C@H](CC(N)=O)NC(=O)[C@@H](N)C(C)C)[C@@H](C)O)C(=O)N[C@@H](Cc1ccccc1)C(=O)N[C@@H](CC(N)=O)C(=O)NCC(N)=O (H-VNDATLFKWMIFNG-NH2)
